Test system: compound-binding proteins such as HDACs, MBLAC2, ISOC1/2, ALDH2, and GATD3A
Experiment: chemoproteomic competition assay, proteome-wide target binding profile
Parameters: species or system human
Details: dose-dependent competition
Procedure: MBLAC2 is a metalloenzyme predicted to harbor one or two Zn^2+ ions in its active site. […] In this assay, compounds of interest are incubated at increasing concentrations with a mixture of lysates of MV4–11 and SW620 cells. The compound-treated lysates are then mixed with bead-immobilized hydroxamic acid-containing compounds iA, iC, and iQ (immobilized Quisinostat), which pull down compound-binding proteins such as HDACs, MBLAC2, ISOC1/2, ALDH2, and GATD3A (Figure a) that can be identified and quantified by mass spectrometry (MS). Proteins targeted by the library compounds in a preincubation step are prevented from being pulled down by the immobilized probes, leading to a dose-dependent reduction in MS signal. Initially, 12 metal-chelating compounds were profiled at two concentrations (10 μM and 100 μM) (Figure S3).
Chemoproteomic competition assays
Sample preparation. For the MBLAC2 and HDAC inhibitor competition assay, the generation of affinity matrices, lysate generation, pulldown assay, and sample preparation were performed as described in detail in REF1. For the kinobeads assay, the generation of affinity matrices, lysate generation, pulldown assay, and sample preparation were performed as described in detail in REF2.
LC-MS/MS. The different sample types were measured with different LC-MS/MS settings. MBLAC2 2-dose competition assays were measured with the Lumos1 setup, MBLAC2 9-dose competition assays were measured with the Lumos2 setup, and kinobeads assays were measured with the Eclipse setup.
Peptides were analyzed via LC–MS/MS on a Dionex Ultimate3000 nano HPLC coupled to either one of two Orbitrap Fusion Lumos mass spectrometers, or to an Orbitrap Eclipse mass spectrometer, operated via the Thermo Scientific Xcalibur software.
In the all setups, peptides were loaded on a trap column (100 μm × 2 cm, packed in-house with Reprosil-Gold C18 ODS-3 5 μm resin, Dr. Maisch, Ammerbuch) and washed with 5 μL/min solvent A (0.1% formic acid in HPLC grade water) for 10 min. Peptides were then separated on an analytical column (75 μm × 40 cm, packed in-house with Reprosil-Gold C18 3μm resin, Dr. Maisch, Ammerbuch) using a 50 min gradient ranging from 4 to 32% solvent B (0.1% formic acid, 5% DMSO in acetonitrile) in solvent A (0.1% formic acid, 5% DMSO in HPLC grade water) at a flow rate of 300 nL/min.
The mass spectrometers were operated in data-dependent mode, automatically switching between MS1 and MS2 spectra. MS1 spectra were acquired over a mass-to-charge (m/z) range of 360–1300 m/z at a resolution of 60,000 (at m/z 200) in the Orbitrap using a maximum injection time of 50 ms and an automatic gain control (AGC) target value of 4e5.
In Lumos settings, up to 12 peptide precursors were isolated in (isolation width of 1.2 Th for Lumos1 and 1.7 for Lumos2, maximum injection time of 75 ms, AGC value of 1e5 for Lumos1 and 2e5 for Lumos2), fragmented by HCD using 30% normalized collision energy (NCE) and analyzed in the Orbitrap at a resolution of 15,000 (Lumos2) or 30,000 (Lumos1). The dynamic exclusion duration of fragmented precursor ions was set to 20 s (Lumos1) or 30 s (Lumos2). In Eclipse measurements, a cycle time of 2 s was chosen. Peptides were isolated in the quadrupole with an isolation offset of 1.2 (isolation width of 1.2 Th, maximum injection time of 54 ms, AGC target of 200%) and fragmented by […]

Row | SMILES | targets / off-targets bound
1 | O=C(NO)c1ccc(-c2nc3ccccc3n3cccc23)cc1 [KV-24] | bound to HINT1 and NME4
2 | O=C(NO)c1ccc(-c2nc3ccccc3c3ccccc23)cc1 [KV-30] | bound to HINT1 and NME4

Source: publication PMC12186257, “Serendipitous and Systematic Chemoproteomic Discovery of MBLAC2, HINT1, and NME1‑4 Inhibitors from Histone Deacetylase-Targeting Pharmacophores” (ACS Chemical Biology, 2025)
